Data taken from patent US20200384064A1, “COMPOSITIONS AND METHODS USING HIGH PROTEIN FOR INDUCTION OF AUTOPHAGY” (SOCIETE DES PRODUiTS NESTLE S.A., priority 2017, published 2020).

Test system: LC3 positive punctae in embryo muscles
Experiment: LC3 positive punctae count in muscles of transgenic LC3-ZsGreen zebrafish embryos
Assay type: in vivo
Procedure: Autophagy was measured by counting the number of LC3 positive punctae in embryo muscles, normalized by total area. A zebrafish autophagy reporter has been generated by stable expression of the LC3 protein fused to ZsGreen under the control of a skeletal muscle specific promoter, hereafter LC3-ZsGreen. Embryos from outcrossed transgenic zebrafish have been raised at 28° C. under standard laboratory conditions and have been treated at 48 h post-fertilization in 96 well plates (n=24). After 16 hours of treatment embryos were anesthetized with 0.016% tricaine and imaged with ImageXpress confocal system at 20× magnification (Molecular Devices). After acquisition embryos were further treated with NH4Cl 100 mM for 4 h to block LC3 degradation and imaged again. Z stack images were captured for each embryo and maximal projection images were produced. Number of LC3 punctae have been calculated with MetaXpress software (Moleculare Devices) and normalized by fish area.

CC(C)[C@H](N)C(=O)O [Valine, valine] was tested, and the “Number of LC3 positive punctae in embryo muscles, normalized by total area” value (500 μM in fish water, 16 hours of treatment from 48 h post-fertilization) was “induced an increase of LC3 positive punctae” and the “Autophagic flux (LC3 punctae in presence of the lysosomal inhibitor NH4Cl)” value (500 μM, then NH4Cl 100 mM for 4 h) was “increase of autophagic flux”.
